The term Solubility denotes the concentration that dissolves in the medium under given conditions. What is called pIC50 is the negative decadic logarithm of the IC50, by convention in mol/L.

The source of these data is US20210395247A1, “BTK INHIBITORS, PHARMACEUTICALLY ACCEPTABLE SALTS, POLYMORPHS AND APPLICATION THEREOF” (SHANGHAI HAIYAN PHARMACEUTICAL TECHNOLOGY CO., LTD., priority 2019, published 2021).

One series in a line: Solubility experiment. It counts as physicochemical. The protocol: About 5 mg of the compound of formula X (amorphous), crystal form I and crystal form A were weighed into each centrifuge tube, and 0.5 ml or 1 ml of corresponding medium was added, and ultrasonic vibration is conducted to make it dissolved as much as possible to form a supersaturated solution, centrifuged and the supernatant (if the solubility is high, dilute it) was taken into the liquid chromatography to calculate the solubility, 5.69 mg of the compound of formula X (amorphous) can be completely dissolved in 0.5 ml of 0.1M HCl medium, 4.24 mg of crystal form I can be completely dissolved in 1 ml of 0.1M HCl medium, the experimental results are shown in table 12: […]

A short description of series [1]: Stability experiment (40° C./75% RH accelerated stability box and 60° C. oven). It counts as physicochemical. The protocol: The compound of formula X (amorphous) and crystal form A are placed in a 40° C./75% RH accelerated stability box and a 60° C. oven respectively, and take samples at fixed time points.
In a further series the target is T1, wild-type EGFR kinase (Homo sapiens, UniProt P00533).
T1 construct: purchased Invitrogen PV3872
As to the kind of experiment: Wild type EGFR kinase inhibition test (z-lyte). It counts as biochemical. The protocol:
All the following reagents used in z-lyte test are commercially available from Invitrogen.
The inhibitory effects of compounds to be tested on wild-type EGFR kinase (Invitrogen, PV3872) were measured by z-lyte methods.
The working concentration of each component in 10 μl wild-type EGFR kinase reaction system was: 10 μM ATP, 0.8 ng/μl wild-type EGFR kinase (Invitrogen, PV3872), 2 μM Tyr04 substrate (Invitrogen, PV3193). After the compounds to be tested were added, the final concentration of DMSO was 2%.
10 mM drug stock solutions dissolved at room temperature were gradiently diluted with 4% DMSO in water to a final concentrations of 10-0.005 μM. To each well were added 2.5 μl of a solution of the compounds to be tested and 5 μl of a mixture of wild-type EGFR kinase and Tyr04 substrate diluted with a reaction buffer, and then 2.5 μl of ATP was added to initiate the reaction. […] The plates were read in a VictorX5 fluorescent microplate reader (PerkinElmer) and the light absorbance at an excitation wavelength of 405 nm and emission wavelengths of 450 nm and 520 nm was measured (For example, C3520 nm represents the reading of C3 well at 520 nm). […]
The half-inhibitory concentration IC50 was calculated by fitting with XLFIT 5.0 software (IDBS, UK).

The next series concerns the target T2, BTK WT (Homo sapiens, UniProt Q06187).
T2 construct: purchased Invitrogen PV3363
As to the kind of experiment: Lantha screening kinase reaction experiment (BTK WT inhibition). It counts as biochemical. The protocol:
The compound was predissolved in 100% DMSO. 10 mM drug stock solution was obtained by dissolution at room temperature and then serially diluted with 8 vol % DMSO solution to a final concentration of 10-0.005 μM. 2.5 μl of a solution of substance to be tested and 2.5 μl of kinase (Invitrogen PV3363) diluted with the reaction buffer were added into each well of 384-well plate (Corning 3676), and then the mixture of Fluososcei-PolyGT (Invitrogen PV3610) substrate and ATP (Invitrogen PV3227) diluted with 5 μl of the reaction buffer were added to initiate the reaction. Among the wells, the kinase in the blank well was replaced with a reaction buffer and the kinase well (Enzyme) was not added with any drug. After shaking at 25° C. for 60 minutes in the dark, 10 μl of Detection Solution (mixture of Invitrogen PV3528 and EDTA, which was diluted with TR-FRET dilution buffer, the working concentration of EDTA was 5 mM, the working concentration of Lanthascreening Tb PY20 antibody was 0.2 nM) was added and shaken at room temperature for 30 minutes. The plates were read on a VictorX5 fluorescent plate reader (PerkinElmer) and the light absorption at an excitation wavelength of 340 nm and emission wavelengths of 500 nm and 520 nm was measured. […]
2. […] The half-inhibitory concentration IC50 was calculated by fitting with XLFIT 5.0 software (IDBS, UK).

The next series concerns the target T3, βBTK Y223 (Homo sapiens, UniProt Q06187).
T3 construct: endogenous in cells; host or cells: Ramos cells
As to the kind of experiment: Intracellular βBTK Y223 phosphorylation HTRF detection in Ramos cells. It counts as cell-based. The settings on record: sodium pervanadate. On the procedure:
The compound was predissolved in 100% DMSO. 10 mM drug stock solution was obtained by dissolution at room temperature and then serially diluted with 5 vol % DMSO solution to a final concentration of 3-0.0014 μM. Ramos cells were seeded into 96-well plates at a density of 4×10^5/well with 45 μl of 1640 medium containing 10% (V/V) FBS per well, and 5 μl of diluted solution of substance to be tested was added to each well, which was incubated for 1 hour at 37° C., 5% (V/V) CO2. 10 μl of sodium pervanadate dilution (diluted with 1640 without serum) was added, and to the negative control wells was added 10 μl of serum-free medium, which was incubated at 25° C. for 30 minutes on a shaker. 20 μl of lysate (4× lysate: blocked mother liquor is 25:1) was added to each well and incubated for 30 minutes at 25° C. on a shaker. It was shaken on an oscillator at 800 rpm for 1 minute. […] The plates were read on a VictorX5 fluorescent plate reader (PerkinElmer) and the light absorption at an excitation wavelength of 317 nm and emission wavelengths of 500 nm and 520 nm was measured (referring to the specification of 63ADK017PEH, Cisbio). The half-inhibitory concentration IC50 was calculated by fitting with XLFIT 5.0 software (IDBS, UK).
(TR-FRET usually uses a lanthanide donor and a delayed reading to cut background.)

A short description of series [2]: Stability experiment of the crystal forms of the free base (mixed forms shaken under suspension in solvents, XRD). It counts as physicochemical. The settings on record: 50° C. 1 day, room temperature 1 day and 7 days. The protocol:
80 mg of the compound of formula X in amorphous form, crystal form I, crystal form II and crystal form III were weighed respectively, and mixed them in a sample bottle; 20 mg of the mixture was weighed into each centrifuge tube, a total of 15 samples (5 experimental solvents, 3 experimental conditions); Experimental solvents: acetone, acetonitrile, ethyl acetate, isopropanol and ethanol; Experimental conditions: 1 day and 7 days at room temperature, 1 day at 50° C. The experimental conditions and results are as follows: […]

A short description of series [3]: Stability experiment of crystal form I (60° C. oven). It counts as physicochemical. The protocol: The sample is weighed and placed in an oven at 60° C., and taken for test at a fixed time point.
Series [4] can be described thus: Thermogravimetric analysis (TGA). It counts as physicochemical. The settings on record: below 250° C. The text has this: TGA and DSC pattern: TGA and DSC pattern were collected on TA Q500/5000 thermogravimetric analyzer and TA Q200/2000 differential scanning calorimeter respectively.
Series [5] in a line: Dynamic Vapor Sorption (DVS). It counts as physicochemical. The protocol: The Dynamic Vapor Sorption (DVS) curve: acquired on the DVS Intrinsic of Surface Measurement Systems. The relative humidity at 25° C. is corrected with the deliquescence points of LiCl, Mg (NO3)2 and KCl.

pIC50: −log10 of the molar value. Converted amounts (≈) assume the structure as drawn. Read-outs that look alike come from different tables or passages of the source.

T2 sequence (Q06187 whole entry): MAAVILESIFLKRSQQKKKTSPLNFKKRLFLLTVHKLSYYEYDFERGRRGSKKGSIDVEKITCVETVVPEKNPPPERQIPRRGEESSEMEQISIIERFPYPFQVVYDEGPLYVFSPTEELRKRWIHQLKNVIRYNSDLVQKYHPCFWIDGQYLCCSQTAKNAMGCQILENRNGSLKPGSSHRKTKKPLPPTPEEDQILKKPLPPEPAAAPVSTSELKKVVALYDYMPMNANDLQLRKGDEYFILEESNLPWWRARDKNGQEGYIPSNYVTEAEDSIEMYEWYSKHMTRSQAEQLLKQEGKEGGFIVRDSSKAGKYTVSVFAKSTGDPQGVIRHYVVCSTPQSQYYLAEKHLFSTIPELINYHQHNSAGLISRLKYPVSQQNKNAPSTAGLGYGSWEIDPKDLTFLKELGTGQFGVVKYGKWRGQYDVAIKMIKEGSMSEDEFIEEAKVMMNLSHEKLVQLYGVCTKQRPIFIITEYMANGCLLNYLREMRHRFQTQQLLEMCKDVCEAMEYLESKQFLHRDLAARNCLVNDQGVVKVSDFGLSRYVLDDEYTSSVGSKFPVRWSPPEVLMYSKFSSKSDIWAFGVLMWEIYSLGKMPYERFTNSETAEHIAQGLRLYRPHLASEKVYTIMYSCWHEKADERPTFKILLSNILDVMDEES
T1 sequence (P00533 668-1210 limits assumed): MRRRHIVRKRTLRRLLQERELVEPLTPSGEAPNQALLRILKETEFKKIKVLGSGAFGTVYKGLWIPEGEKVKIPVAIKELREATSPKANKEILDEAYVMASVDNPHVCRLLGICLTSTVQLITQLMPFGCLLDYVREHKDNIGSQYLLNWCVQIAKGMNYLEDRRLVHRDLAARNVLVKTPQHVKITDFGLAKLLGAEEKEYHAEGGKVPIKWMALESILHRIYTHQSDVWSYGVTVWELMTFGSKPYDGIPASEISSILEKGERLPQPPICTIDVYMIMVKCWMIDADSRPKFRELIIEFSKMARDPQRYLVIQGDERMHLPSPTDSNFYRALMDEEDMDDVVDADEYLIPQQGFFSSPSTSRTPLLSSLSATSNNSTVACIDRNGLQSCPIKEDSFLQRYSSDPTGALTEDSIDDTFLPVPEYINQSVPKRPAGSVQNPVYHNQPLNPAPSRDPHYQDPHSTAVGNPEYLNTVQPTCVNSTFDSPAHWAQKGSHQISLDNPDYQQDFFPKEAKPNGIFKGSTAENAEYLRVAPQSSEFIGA
T3 sequence (Q06187 whole entry): as the sequence (Q06187 whole entry) above

For the compound `C=CC(=O)N1CCC[C@@H](Nc2nc(Nc3ccc(N4CCOCC4)cc3F)c3c(c2F)CNC3=O)C1` [Compound of formula X, (R)-6-((1-acryloylpiperidin-3-yl)amino)-7-fluoro-4-((2-fluoro-4-morpholinophenyl)amino)-1,2-dihydrogen-3H-pyrrolo[3,4-c]pyridin-3-one], the Solubility in the series “Solubility experiment” (0.1M HCl medium, listed as Amorphous) is ≥11380 µg/mL; in “Solubility experiment” (H2O, listed as Amorphous), 11 µg/mL; in “Solubility experiment” (pH 4.5 medium, listed as Amorphous), 9 µg/mL; in “Solubility experiment” (pH 6.8 medium, listed as Amorphous), 7 µg/mL. The Content % in [1] (0 day) is 100.00%; in series [1] (40° C./75% RH, 8 days), 100.62%; in series [1] (40° C./75% RH, 14 days), 100.70%; in [1] (60° C., 8 days) it was 100.82%; in [1] (60° C., 14 days) it was 100.81%. In addition, the “Total Impurity %” value in series [1] (0 day) was 0%; in series [1] (40° C./75% RH, 8 days) it was 0%; in [1] (40° C./75% RH, 14 days) it was 0%; in series [1] (60° C., 8 days), 0%; in [1] (60° C., 14 days), 0%. In series [1] (40° C./75% RH and 60° C., 8 days and 14 days), the “chemical stability (conclusion in words)” value was “stable”. Besides, the pIC50 on wild-type EGFR kinase (10 μM ATP, read-out: EGFR WT IC50) was 6.03; at BTK WT, 8.62; at βBTK Y223, 8.52. Further, the “selectivity BTK WT kinase over wild-type EGFR kinase (in words)” value on wild-type EGFR kinase (comparison of tables 14 and 16) is “selective inhibitory activities against BTK WT kinase”.
Turning to `C=CC(=O)N1CCC[C@@H](Nc2nc(Nc3ccc(N4CCOCC4)cc3F)c3c(c2F)CNC3=O)C1` [crystal form III, (R)-6-((1-acryloylpiperidin-3-yl)amino)-7-fluoro-4-((2-fluoro-4-morpholinophenyl)amino)-1,2-dihydrogen-3H-pyrrolo[3,4-c]pyridin-3-one], the “form obtained from the mixture of amorphous and crystal forms I, II, III (XRD)” value in series [2] (ethanol) is listed as “stable crystal form”.
On to `C=CC(=O)N1CCC[C@@H](Nc2nc(Nc3ccc(N4CCOCC4)cc3F)c3c(c2F)CNC3=O)C1` [crystal form I, (R)-6-((1-acryloylpiperidin-3-yl)amino)-7-fluoro-4-((2-fluoro-4-morpholinophenyl)amino)-1,2-dihydrogen-3H-pyrrolo[3,4-c]pyridin-3-one], for which the Solubility in “Solubility experiment” (0.1M HCl medium) is ≥4240 µg/mL; in “Solubility experiment” (pH 4.5 medium, pH 4.5, aqueous buffer, thermodynamic from solid, pH 4.5 medium, read-out: Solubility), 8 µg/mL (≈ 16 µM); in “Solubility experiment” (pH 6.8 medium, pH 6.8, aqueous buffer, thermodynamic from solid, pH 6.8 medium, read-out: Solubility), 6 µg/mL (≈ 12 µM); in the series “Solubility experiment” (water, thermodynamic from solid, H2O, read-out: Solubility), 7 µg/mL (≈ 14 µM). The Content % came to 100.11% in [3] (0 day); 99.91% in series [3] (60° C., 1 week); 99.76% in [3] (60° C., 2 weeks). The Relative substance % entry in [3] (0 day) is “none”; in series [3] (60° C., 1 week) it was “none”; in series [3] (60° C., 2 weeks) it was “none”. Moreover, the “chemical stability (conclusion in words)” value in series [3] (60° C., 1 week and 2 weeks) is “stable”. For the same compound, the “crystal form stability by XRD” value in series [3] (60° C., 1 week and 2 weeks) is “has not changed”. Besides, the TGA weight loss result in series [4] is given as “basically no weight loss”. Moreover, the “form obtained from the mixture of amorphous and crystal forms I, II, III (XRD)” value in series [2] (acetone), in series [2] (acetonitrile), in series [2] (ethyl acetate) and in series [2] (isopropanol) was “stable crystal form” in each case. For the same compound, the “weight gain of moisture absorption” value in series [5] (90% RH, 25° C.) is listed as 0.22%. In addition, the “hygroscopicity (in words)” value in [5] (from DVS at 90% RH) was “slightly hygroscopic”.
Turning to `C=CC(=O)N1CCC[C@H](Nc2nc(Nc3ccc(N4CCOCC4)cc3F)c3c(c2F)CNC3=O)C1` [(S)-6-((1-acryloylpiperidin-3-yl)amino)-7-fluoro-4-((2-fluoro-4-morpholinophenyl)amino)-1,2-dihydrogen-3H-pyrrolo[3,4-c]pyridin-3-one, reference compound], the pIC50 against BTK WT is 7.32.
